# Data as given in patent US8383601B2, “Tissue specific gene therapy treatment” (Thomas Jefferson University, priority 2006, dated 2013).
# Where no end group is shown, it is not given here.
# How the values were obtained:
# mouse thoracic aorta = test: In vitro physiology: relaxation/contraction response of thoracic aorta rings
# Description: In Vitro physiology —The relaxation/contraction response of thoracic aortas of WT or SKO mice was examined using a commercially available mounting apparatus attached to a force transducer (ADInstruments). […] Data were normalized to the PE-induced EC50 contraction which were similar between all aorta tested.
# [1] = tested on: endothelial surface of thoracic aorta; test: NO release from mouse aorta; details: ACh 10^−5 M
# Method: NO release from mouse aorta—NO release from the endothelial surface of aorta was measured in vitro using an Apollo 4000 “Free Radical Analyzer” (WPI, Sarasota, Fla.) as previously described with some modifications.^52 Briefly, thoracic aorta of WT (n=4) and SKO (n=4) mice were carefully isolated and pinned down in KH solution after connective tissue was thoroughly removed. NO was measured under baseline conditions as well as after ACh stimulation (10^−5 M). Two measurements were recorded per animal and condition and NO values were normalized to the weight of the vascular tissue.
# HCAEC = test: S100A1 overexpression and NO production in HCAEC; type: cell-based, human; details: HCAEC pre-incubated with 10^−4 M 20 minutes prior to ACh
# Method: S100A1 overexpression and NO production in HCAEC—S100A1 overexpression in HCAEC was achieved by electrical transfection of the plasmid pAdTrack-S100A1 (10 μg), which encodes for GFP and S100A1 both driven by individual cytomegalovirus (CMV) promoters. PBS and the plasmid pAdTrack (10 μg) were used as controls. 500,000 HCAEC were used for each transfection using Nucleofactor® (AMAXA biosystems) according to the manufacturers instructions and plated on 6 well dishes. 18 hours after transfection cells were stimulated using 10^−5M ACh or PBS for 1 hour. […] NO in the supernatant was measured indirectly using the Nitrate/Nitrite fluorometric assay kit (Cayman, Chemical) according to company recommendations. Transfection was controlled by GFP expression as described previously and cells were harvested for mRNA isolation. Experiments were run in triplicate and 3 individual experiments were performed.
# [2] = tested on: S100A1 mRNA expression in RCEC; test: Regulation of S100A1 expression in endothelial cells; type: cell-based, rat; details: 10^−7 M, 60 hours, versus PBS
# Method: Regulation of S100A1 expression in HCAEC—After growing HCAEC or RCEC to 90% confluency full medium was replaced by basal EBM-2 medium with 0.5% serum and cells were stimulated with endothelin-1 (ET-1), angiotensin II (AngII) (both 10^−7 M) or PBS for 60 h. Cells were harvested for either mRNA or protein isolation and S100A1 expression was standardized against 18S rRNA or GAPDH.
# RNA Isolation and Real-time RT-PCR—Total RNA was isolated from either HCAEC or […] using Trizol® (Life Technologies). cDNA was synthesized by reverse transcription of the RNA with Superscript II® (Life Technologies) as recommended. Real-time PCR was performed in duplicates with a 1:100 dilution of the cDNA on a MyIQ real time PCR detection system (BioRad) with the SYBR® Green PCR master mix (Applied Biosystems). The oligonucleotide primers to examine expression of genes were as follows: S100A1, forward primer 5′-[…]-3′ (SEQ. ID. No. 19), reverse primer 5′-[…]-3′ (SEQ. ID. No. 20). For normalization, 18S rRNA was used, forward primer 5′-[…]-3′ (SEQ. ID. No. 27), reverse primer 5′-GGACATCTAAGGGCATCAC-3′ (SEQ. ID. No. 28). PCR conditions were 95° C., 3 min, and 40 cycles of 95° C., 10 sec; 63.5° C., 45 sec. Specificity of PCR products were confirmed by gel electrophoresis.
# [3] = tested on: rat MI model (chronic HF); test: Catheter-based in vivo hemodynamic measurements in post-MI HF rats; details: mean ± SEM
# Method: (§1) Rat MI model and cardiac gene delivery—All animal procedures and experiments were performed in accordance with the guidelines of the IACUC of Thomas Jefferson University. MI was induced as described previously using a model of cryoinfarction that produces a highly reproducible loss of myocardium^13. Briefly, anesthetized adult male (250-300 g) rats were intubated and mechanically ventilated and anaesthesia was maintained using a 2% isoflurane (v/v) oxygen mixture. The heart was exposed through a median sternotomy and the pericardium was opened. A 6-0 suture was placed at the apex of the LV. An 8 mm diameter cylindrical stamp was cooled in liquid nitrogen and then pressed on the LV free wall. Cryothermia was applied by use of three freeze cycles of 1 min each that was interrupted by one minute thawing intervals^13,15.
# Myocardial gene transfer to 10 week post-MI rats was achieved as previously described^13,15 with some modifications. Briefly, under general anesthesia (2% isoflurane, v/v) a midline cervical incision was made and the animal was cooled to 29° C. using ice packs. A P-50 catheter (Becton Dickinson, Sparks, Md.) was advanced into the aortic root via the right carotid artery and the ascending aorta was looped using 2-0 silk. 1.2 mg adenosine was injected into the right ventricle using a 30½ G needle. Next, the ascending aorta was clamped and 2.5×10^11 particles of the AAV construct and 8 μg of substance P (Sigma) were rapidly injected into the aortic root allowing for coronary perfusion. After 2 min the aortic clamp was released, a bolus of dobutamine (30 μg; intra-arterial) was administered and the animal was re-warmed using a heating pad. The incision was closed and animals were transferred back to their cages receiving appropriate analgesia. […]
# Catheter-based in vivo hemodynamic measurements—Cardiac function was measured 8 weeks following gene therapy (18 weeks after MI) in anesthetized rats (2% isoflurane; v/v) using 2 F pressure catheter (SPR-320; Millar instruments, Houston, Tex.). The pressure transducer was placed into the LV cavity through the right carotid artery and the right external jugular vein was cannulated with a P-10 catheter (Becton Dickinson, Sparks, Md.) that was used for isoproterenol administration (333 ng/kg BW) as previously described^13,15.
# [4] = tested on: rat MI model (chronic HF); test: Echocardiography of global cardiac function in post-MI HF rats; type: in vivo
# Method: as §1
# Myocardial gene transfer to 10 week post-MI rats was achieved as previously described^13,15 with some modifications. […]
# Echocardiography—To measure global cardiac function, echocardiography was performed 10 and 18 weeks post-MI by use of the VisualSONICS VeVo 770 imaging system with a 710 scanhead in anesthetized animals (2% isoflurane, v/v). The internal diameter of the LV was measured in the short-axis view from M-mode recordings in end diastole and end systole. […]
# [5] = tested on: rat MI model (chronic HF); test: Heart weight to body weight ratio in post-MI HF rats; type: in vivo; details: 18 weeks post-MI; mean ± SEM
# Method: Myocardial gene transfer to 10 week post-MI rats was achieved as previously described^13,15 with some modifications. Briefly, under general anesthesia (2% isoflurane, v/v) a midline cervical incision was made and the animal was cooled to 29° C. using ice packs. A P-50 catheter (Becton Dickinson, Sparks, Md.) was advanced into the aortic root via the right carotid artery and the ascending aorta was looped using 2-0 silk. 1.2 mg adenosine was injected into the right ventricle using a 30½ G needle. Next, the ascending aorta was clamped and 2.5×10^11 particles of the AAV construct and 8 μg of substance P (Sigma) were rapidly injected into the aortic root allowing for coronary perfusion. […]
# [6] = tested on: adult rat ventricular cardiomyocytes; test: Diastolic cell length of isolated cardiomyocytes; type: cell-based; details: 2 hrs after cardiomyocyte isolation, 3 animals per group, 18 weeks post-MI; mean ± SEM
# Method: Isolation of adult rat ventricular cardiomyocytes—Ca^2+-tolerant adult cardiomyocytes were isolated from LVs 8 weeks after gene delivery (18 weeks post-MI) by a standard enzymatic digestion procedure and cultivated as described^13,15. […] Length of isolated cardiomyocytes was determined on enlarged digital photos using Olympus Fluoview 4.3 software.
# [7] = tested on: adult rat ventricular cardiomyocytes; test: Ca2+-transient analyses and contractile parameters of isolated adult rat cardiomyocytes; type: cell-based; details: 8 weeks after treatment; 1 Hz, 2.5 mM [Ca2+]e; for AAV6/S100A1 infected (green) cells only
# [8] = tested on: LV mRNA (S100A1, SERCA2a, PLB, ANF, TGFβ1, Collagen I); test: Real-time RT-PCR of cardiac expression of key genes in LV; type: in vivo, rat; details: 18 weeks post-MI
# Method: RNA isolation and real-time RT-PCR—Total RNA was isolated from LV as well as from isolated cardiomyocytes using either Ultraspec® (Biotec) or Trizol® (Life Technologies). cDNA was synthesized by reverse transcription of the RNA with Superscript II® (Life Technologies) as recommended. Real-time RT-PCR was performed in duplicates with a 1:100 dilution of the cDNA on a MyIQ real time PCR detection system (BioRad) with the SYBR® Green PCR master mix (Applied Biosystems) as described previously^13,15. The oligonucleotide primers to examine expression of genes were as follows: ANF, forward primer 5′-[…]-3′ (SEQ. ID. No. 13), reverse primer 5′-[…]-3′ (SEQ. ID. No. 14); SERCA2a, forward primer 5′-[…]-3′ (SEQ. ID. No. 15), reverse primer 5′-[…]-3′ (SEQ. ID. No. 16); PLB, forward primer 5′-[…]-3′ (SEQ. ID. No. 17), reverse primer 5′-[…]-3′(SEQ. ID. No. 18); S100A1, forward primer 5′-[…]-3′ (SEQ. ID. No. 19), reverse primer 5′-[…]-3′ (SEQ. ID. No. 20); TGF-131, forward primer 5′-[…]-3′ (SEQ. ID. No. 21), reverse primer 5′-[…]-3′(SEQ. ID. No. 22); Collagen type I, forward primer 5′-[…]-3′ (SEQ. ID. No. 23), reverse primer 5′-AGGTGATGTTCTGGG-3′(SEQ. ID. No. 24); GRK2, forward primer 5′-[…]-3′ (SEQ. ID. No. 25), reverse primer 5′-[…]-3′ (SEQ. ID. No. 26). For normalization, 18S rRNA was used, forward primer 5′-[…]-3′ (SEQ. ID. No. 27), reverse primer 5′-GGACATCTAAGGGCATCAC-3′ (SEQ. ID. No. 28). PCR conditions were 95° C., 3 min, and 40 cycles of 95° C., 10 sec; 60.5° C., 45 sec. Specificity of PCR products were confirmed by gel electrophoresis.
# [9] = Isoproterenol (333 ng/kg BW), 8 weeks after gene therapy in HF
# [10] = basal, 8 weeks after gene therapy in HF
compound,measurement,setting,value
"CC(=O)OCC[N+](C)(C)C [ACh, acetylcholine]",maximal response to ACh,mouse thoracic aorta; SKO aortas (n=6),55±6.49 % of PE-precontraction
same,maximal response to ACh,mouse thoracic aorta; WT control aortas (n=6),14±2.41 % of PE-precontraction
same,ACh stimulated aortic endothelial NO release,"[1]; SKO mice (n=4), second value",134.5±25.3 nM NO/mg tissue
same,ACh stimulated aortic endothelial NO release,[1]; WT mice (n=4),368.2±68.1 nM NO/mg tissue
"NCCOB(c1ccccc1)c1ccccc1 [2-APB, 2-aminoethoxydiphenylborate]",ACh-stimulated NO generation after IP3R blockage,HCAEC,abolished NO generation
"CNC[C@H](O)c1cccc(O)c1 [PE, phenylephrine]",EC50,"mouse thoracic aorta; Mus musculus, read-out: EC50 of the PE response (contraction)",300 nM
"endothelin-1 (CSCSSLMDKECVYFCHLDIIW; ends and bridges not checked; cysteine pairing not given here; UniProt P05305 53-73, looked up) [ET-1]",S100A1 mRNA levels,[2],significantly reduced
"angiotensin II (DRVYIHPF; Angiotensin-2; UniProt P01019 25-32, looked up) [Ang II]",S100A1 mRNA levels,[2],significantly reduced
COCCc1ccc(OCC(O)CNC(C)C)cc1 (centres unmarked) [metoprolol],HR,[3]; [9],308 ± 6^& min^−1
same,LV +dP/dt,[3]; [9],9403 ± 491 mmHg/s
same,LV −dP/dt,[3]; [9],5571 ± 333 mmHg/s
same,LVEDP,[3]; [9],2.8 ± 0.4 mmHg
same,LVESP,[3]; [9],105 ± 3.7 mmHg
same,HR,"[3]; basal, 8 weeks after gene therapy in HF (18 weeks post-MI)",264 ± 8^& min^−1
same,LV +dP/dt,[3]; [10],4948 ± 225 mmHg/s
same,LV −dP/dt,[3]; [10],4418 ± 223 mmHg/s
same,LVEDP,[3]; [10],4.6 ± 0.5 mmHg
same,LVESP,[3]; [10],109 ± 3.1 mmHg
same,LV chamber dilatation (LV diastolic dimension),[4]; 18 week post-MI compared to pre-treatment (10 week post-MI) values,significantly attenuated further LV chamber dilatation
same,change in cardiac function (EF) over the 2 month treatment period,"[4]; HF rats, metoprolol only (with GFP)",no improvement
same,HW/BW ratio,[5],2.77 ± 0.05 g/kg
same,Cell length (diastolic),[6],118.9 ± 2.3 μm
same,contractile properties and [Ca2+]i transients of isolated failing myocytes,[7],did not affect contractile properties
same,Collagen I mRNA levels,[8],significantly reduced
same,TGFβ1 mRNA levels,[8],significantly reduced
same,ventricular ANF mRNA expression,[8],significantly reduced
same,PLB mRNA levels,[8]; standardized to 18S rRNA,attenuated the down-regulation
same,SERCA2a mRNA levels,[8]; standardized to 18S rRNA,attenuated the down-regulation
same,cardiac S100A1 mRNA,[8]; standardized to 18S rRNA,attenuated the down-regulation
